Source: patent publication US9453014B2, “Cyclic amide derivatives as inhibitors of 11-β-hydroxysteroid dehydrogenase and uses thereof” (CONNEXIOS LIFE SCIENCES PVT. LTD., priority 2011, dated 2016)

Target: T1, human full length HSD11 β 1 (Homo sapiens, UniProt P28845)
T1 construct: transient expression of human full length HSD11 β 1 expression vector; host or cells: CHO cells (transient transfection)
Test: In Vitro HSD11β1 Inhibition Assay
Assay type: cell-based
Settings: CHO cells transiently expressing human HSD11β1; 200 nM cortisone+500 uM NADPH overnight; cortisone to cortisol by LC/MS-MS; read-out: 11βHSD1 (IC50)
Protocol: In Vitro HSD11β1 Inhibition Assay:
CHO cells were maintained in Dulbecco's modified Eagle's medium/nutrient mixture F-12 containing 5% fetal bovine serum (v/v) and 2 mM glutamine. Cells were cultured at 37° C. with 5% CO2. For transient expression of human full length HSD11 β 1 expression vector (OriGene Technologies), cells were seeded at a density of 2×10^5 cells/well in a 6-well plate. Transfection was done using Turbofectin8 reagent (OriGene Technologies), according to the protocol provided with the reagent. After 24 hours post-transfection, cells were trypsinized and pooled together before they were re-seeding to 96-well plate at a density of 40000 cells/well. 24 hours after re-seeding, cells were incubated with 200 nM cortisone+500 uM NADPH (or along with small molecule inhibitors) overnight. The enzymatic activity or inhibition of enzyme activity was measured by estimating the conversion of cortisone to cortisol by LC/MS-MS method. The IC50 in nM was calculated from an 8 point log scale of concentration versus inhibition.

T1 sequence (P28845 whole entry): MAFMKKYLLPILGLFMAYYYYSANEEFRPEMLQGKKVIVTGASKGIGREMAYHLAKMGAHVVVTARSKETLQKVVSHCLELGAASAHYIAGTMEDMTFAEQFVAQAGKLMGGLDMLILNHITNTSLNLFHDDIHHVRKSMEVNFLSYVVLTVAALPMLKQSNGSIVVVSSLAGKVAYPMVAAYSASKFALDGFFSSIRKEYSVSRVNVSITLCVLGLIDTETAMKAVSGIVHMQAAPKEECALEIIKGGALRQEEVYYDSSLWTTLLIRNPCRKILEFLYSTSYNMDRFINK

| SMILES | IC50 |
| --- | --- |
| CC(CC(=O)N1CCCC2CCCCC21)c1c[nH]c2ccccc12 (single isomer, unassigned) [Example 124, 3-(1H-indol-3-yl)-1-(octahydroquinolin-1(2H)-yl)butan-1-one] | 0.1 to 0.15 µM |
| CC(CC(=O)N1CCOC2CCCCC21)c1c[nH]c2cccc(F)c12 (single isomer, unassigned) [Example 137, 3-(4-fluoro-1H-indol-3-yl)-1-(octahydro-4H-1,4-benzoxazin-4-yl)butan-1-one] | 0.1 to 0.15 µM |
| CC(CC(=O)N1CCOC2CCCCC21)c1c[nH]c2cccc(F)c12 (single isomer, unassigned) [Example 138, 3-(4-fluoro-1H-indol-3-yl)-1-(octahydro-4H-1,4-benzoxazin-4-yl)butan-1-one] | 0.15 to 0.2 µM |
| CC(CC(=O)N1CCO[C@H]2CCCCC21)c1c[nH]c2cccc(F)c12 (single isomer, unassigned) [Example 139, 3-(4-fluoro-1H-indol-3-yl)-1-[cis-(4a,8a)-octahydro-4H-1,4-benzoxazin-4-yl]butan-1-one] | 0.1 to 0.15 µM |
| CC(CC(=O)N1CCO[C@H]2CCCCC21)c1c[nH]c2cccc(F)c12 (single isomer, unassigned) [Example 140, 3-(4-fluoro-1H-indol-3-yl)-1-[cis-(4a,8a)-octahydro-4H-1,4-benzoxazin-4-yl]butan-1-one] | < 0.1 µM |
| CC(CC(=O)N1CCCC2CCCCC21)c1c[nH]c2ncccc12 (single isomer, unassigned) [Example 144, 1-(octahydroquinolin-1(2H)-yl)-3-(1H-pyrrolo[2,3-b]pyridin-3-yl)butan-1-one] | > 0.25 µM |
| CC(CC(=O)N1CCCC2CCCCC21)c1c[nH]c2ncccc12 (single isomer, unassigned) [Example 145, 1-(octahydroquinolin-1(2H)-yl)-3-(1H-pyrrolo[2,3-b]pyridin-3-yl)butan-1-one] | < 0.1 µM |
| O=C(O)C1CCN(C(=O)CC(c2ccccc2)c2c[nH]c3cc(F)ccc23)C2CCCCC12 (single isomer, unassigned) [Example 159, 1-[3-(6-fluoro-1H-indol-3-yl)-3-phenylpropanoyl]decahydroquinoline-4-carboxylic acid] | < 0.1 µM |

The next lines start with the values.

| IC50 | SMILES |
| --- | --- |
| < 0.1 µM | CC(C)C(CC(=O)N1CCCC2CCCCC21)c1c[nH]c2ccccc12 (single isomer, unassigned) [Example 117, 3-(1H-indol-3-yl)-4-methyl-1-(octahydroquinolin-1(2H)-yl)pentan-1-one] |
| < 0.1 µM | CC(C)C(CC(=O)N1CCCC2CCCCC21)c1c[nH]c2ccccc12 (single isomer, unassigned) [Example 118, 3-(1H-indol-3-yl)-4-methyl-1-(octahydroquinolin-1(2H)-yl)pentan-1-one] |
| < 0.1 µM | CC(CC(=O)N1CCCC2CCCCC21)c1c[nH]c2ccccc12 (single isomer, unassigned) [Example 119, 3-(1H-indol-3-yl)-1-(octahydroquinolin-1(2H)-yl)butan-1-one] |
| < 0.1 µM | CC(CC(=O)N1CCCC2CCCCC21)c1c[nH]c2ccccc12 (single isomer, unassigned) [Example 120, 3-(1H-indol-3-yl)-1-(octahydroquinolin-1(2H)-yl)butan-1-one] |
| < 0.1 µM | CC(CC(=O)N1CCCC2CCCCC21)c1c[nH]c2cccc(F)c12 (single isomer, unassigned) [Example 122, 3-(4-fluoro-1H-indol-3-yl)-1-(octahydroquinolin-1(2H)-yl)butan-1-one] |
| < 0.1 µM | CC(CC(=O)N1CCCC2CCCCC21)c1c[nH]c2cccc(F)c12 (single isomer, unassigned) [Example 123, 3-(4-fluoro-1H-indol-3-yl)-1-(octahydroquinolin-1(2H)-yl)butan-1-one] |
| < 0.1 µM | CC(CC(=O)N1CCCC2CCCCC21)c1c[nH]c2ccccc12 (single isomer, unassigned) [Example 125, 3-(1H-indol-3-yl)-1-(octahydroquinolin-1(2H)-yl)butan-1-one] |
